# Calls of active or inactive are those of the source.
# Legend:
# [1] = P. falciparum Dd2 growth inhibitors, dose response, SYBR Green, cherry-picked samples (AID 1159567); format: functional, cell-based
# H9c2 = assay: cells; format: functional, cell-based; settings: Rattus norvegicus, H9c2, Myocardium;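 further: confirmatory concentration-response retest of ultra-high-throughput screening hits for modulation of myocardial damage; cell death induced by hydrogen peroxide oxidative stress; compound pretreatment for 60 min then peroxide exposure for 2 h; potency is for protecting the cells against peroxide damage rather than for killing them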
# [2] = growth suppression of PTEN-null colon cells, dose response, cell-based, HCT116 PTEN knockout (AID 1047); format: functional;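 further: HCT116 colon tumor cells with PTEN knocked out; cells exposed to compound for 60 hours before readout; potency for loss of cell viability measured by luminescence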
# [3] = molecular target: Induced myeloid leukemia cell differentiation protein Mcl-1 (Homo sapiens, UniProt Q07820); format: functional
# Chain of Induced myeloid leukemia cell differentiation protein Mcl-1 (Q07820 whole entry): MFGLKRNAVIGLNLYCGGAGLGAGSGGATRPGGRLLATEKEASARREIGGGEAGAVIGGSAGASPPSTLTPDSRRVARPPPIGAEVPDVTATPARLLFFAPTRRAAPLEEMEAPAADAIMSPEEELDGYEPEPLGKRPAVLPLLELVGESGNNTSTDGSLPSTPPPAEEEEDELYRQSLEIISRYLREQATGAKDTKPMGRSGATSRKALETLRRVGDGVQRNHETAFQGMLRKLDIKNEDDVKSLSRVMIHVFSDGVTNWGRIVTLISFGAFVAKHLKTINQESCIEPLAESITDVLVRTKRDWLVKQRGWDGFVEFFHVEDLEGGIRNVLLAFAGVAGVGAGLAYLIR
# [4] = molecular target: T1, Corticotropin-releasing factor receptor 2/Corticotropin-releasing factor-binding protein (Homo sapiens, UniProt P24387+Q13324); assay: Dose Response confirmation of uHTS hits for small molecule antagonists of the CRF-binding protein and CRF-R2 receptor complex.; format: functional; settings: read-out: IC50_Mean
# T1 sequence (Q13324 whole entry): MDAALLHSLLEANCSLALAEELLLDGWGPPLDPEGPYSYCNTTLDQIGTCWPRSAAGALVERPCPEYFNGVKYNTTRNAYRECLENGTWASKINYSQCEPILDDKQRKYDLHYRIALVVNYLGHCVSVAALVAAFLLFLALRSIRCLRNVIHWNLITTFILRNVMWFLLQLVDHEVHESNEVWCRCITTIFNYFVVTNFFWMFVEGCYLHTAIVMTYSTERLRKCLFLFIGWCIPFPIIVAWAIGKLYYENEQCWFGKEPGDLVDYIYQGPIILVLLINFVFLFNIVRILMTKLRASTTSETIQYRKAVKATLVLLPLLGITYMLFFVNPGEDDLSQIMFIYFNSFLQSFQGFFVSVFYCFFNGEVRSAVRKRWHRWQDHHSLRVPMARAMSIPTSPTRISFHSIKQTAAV
# T1 sequence (P24387 whole entry): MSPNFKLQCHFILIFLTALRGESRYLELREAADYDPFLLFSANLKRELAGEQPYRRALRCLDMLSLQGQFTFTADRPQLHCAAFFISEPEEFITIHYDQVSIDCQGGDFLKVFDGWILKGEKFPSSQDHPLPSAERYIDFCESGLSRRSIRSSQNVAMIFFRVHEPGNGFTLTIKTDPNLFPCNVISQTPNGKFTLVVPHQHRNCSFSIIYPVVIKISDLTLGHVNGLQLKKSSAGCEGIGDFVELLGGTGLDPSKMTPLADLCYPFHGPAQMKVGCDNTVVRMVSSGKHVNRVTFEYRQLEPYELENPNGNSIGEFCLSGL
# [5] = molecular target: T1, Corticotropin-releasing factor receptor 2/Corticotropin-releasing factor-binding protein; assay: activators of CRF receptor 2 with binding protein – uHTS hits, confirmation (AID 602473); format: functional; settings: read-out: EC50_Mean
# BJ [6] = assay: cytotoxicity toward BJ-TERT fibroblasts, dose response, cell-based, RAS-independent, luminescence (AID 1933); format: functional, Homo sapiens; settings: Homo sapiens, BJ
# BJ [7] = assay: cells; format: functional, cell-based, Homo sapiens; settings: Homo sapiens, BJ
# BJ [8] = assay: cytotoxicity toward BJ-TERT-LT-ST fibroblasts, dose response, cell-based, RAS-independent, luminescence (AID 1935); format: functional, Homo sapiens; settings: Homo sapiens, BJ;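 further: BJ fibroblasts immortalized with TERT plus LT and ST oncogenes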
# [9] = cytotoxicity toward DRD oncogenic fibroblasts, dose response, cell-based, non-viral oncogenic, luminescence (AID 1934); format: functional; settings: Homo sapiens
# [10] = inhibitors of intracellular T. cruzi replication, confirmation, NIH3T3 host cells, beta-gal luminescence (AID 2044); format: functional, cell-based;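 further: intracellular parasites grown in NIH/3T3 mouse fibroblasts as host cells; luminescent beta-galactosidase reporter signal from transgenic T. cruzi replicating inside host cells; inhibitors lower the luminescence signal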
# [11] = cytotoxicity toward NIH3T3 fibroblasts, dose response, counter-screen, cell-based, ATP luminescence, mouse fibroblasts (AID 2010); format: functional;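 further: cells exposed to compound for about 90 hours before reading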
# cells = format: functional
# INS1 = assay: beta cell apoptosis inhibitors, cytokine rescue, dose response, luminescence, retest (AID 449756); format: functional, cell-based; settings: Rattus norvegicus;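 further: cell death triggered by IL-1 beta plus TNF-alpha plus IFN-gamma mixture; protective hits raise ATP signal compared with cytokine alone wells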
# Cytochrome P450 2D6 = Cytochrome P450 2D6 (Homo sapiens, UniProt P10635);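 further: CYP2D6 member of a cytochrome P450 panel assay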
# Chain of Cytochrome P450 2D6 (P10635 whole entry): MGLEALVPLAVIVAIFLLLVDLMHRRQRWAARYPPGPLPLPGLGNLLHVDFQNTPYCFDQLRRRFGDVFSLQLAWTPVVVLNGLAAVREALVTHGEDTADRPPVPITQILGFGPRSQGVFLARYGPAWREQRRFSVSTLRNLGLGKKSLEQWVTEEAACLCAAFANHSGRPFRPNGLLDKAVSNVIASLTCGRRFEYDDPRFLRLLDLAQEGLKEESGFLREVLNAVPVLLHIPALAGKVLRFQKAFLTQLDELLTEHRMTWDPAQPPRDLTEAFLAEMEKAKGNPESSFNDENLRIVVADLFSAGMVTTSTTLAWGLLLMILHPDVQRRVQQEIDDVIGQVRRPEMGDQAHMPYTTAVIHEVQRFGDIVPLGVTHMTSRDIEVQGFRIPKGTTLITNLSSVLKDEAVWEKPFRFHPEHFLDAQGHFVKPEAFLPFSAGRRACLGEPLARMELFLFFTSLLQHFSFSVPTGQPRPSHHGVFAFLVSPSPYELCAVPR
# Cytochrome P450 1A2 = molecular target: T2, Cytochrome P450 1A2 (Homo sapiens, UniProt P05177);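 further: PubChem cytochrome P450 panel assay, CYP1A2 panel member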
# T2 sequence (P05177 whole entry): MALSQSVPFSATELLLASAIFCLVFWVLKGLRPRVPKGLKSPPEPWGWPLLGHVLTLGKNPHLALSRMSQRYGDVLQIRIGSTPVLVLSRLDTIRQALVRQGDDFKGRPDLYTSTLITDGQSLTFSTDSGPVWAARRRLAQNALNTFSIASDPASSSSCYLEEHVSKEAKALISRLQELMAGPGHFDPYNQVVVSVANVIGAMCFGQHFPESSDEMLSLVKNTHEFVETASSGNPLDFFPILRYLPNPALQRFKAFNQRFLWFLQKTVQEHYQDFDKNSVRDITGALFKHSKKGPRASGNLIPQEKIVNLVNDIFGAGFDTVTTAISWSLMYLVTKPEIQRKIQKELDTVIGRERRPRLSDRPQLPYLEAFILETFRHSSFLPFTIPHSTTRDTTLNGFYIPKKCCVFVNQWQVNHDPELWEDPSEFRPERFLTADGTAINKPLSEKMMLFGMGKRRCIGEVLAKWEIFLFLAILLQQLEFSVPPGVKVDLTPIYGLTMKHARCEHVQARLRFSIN
# [12] = Shn3 3'UTR reporter inhibitors, dose response, cell-based, Clone20 osteoblasts, firefly luciferase, cherry-picked (AID 624132); format: functional;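 further: firefly luciferase luminescence from reporter carrying the Shn3 3'UTR in osteoblasts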
# [13] = HepG2 cell cytotoxicity, dose response, cytotoxicity control for Shn3 inhibitor project, CellTiter-Glo, cherry-picked (AID 624134); format: functional, cell-based
# [14] = control 3'UTR Renilla luciferase suppression, dose response, counter-screen for Shn3 inhibitor project, cell-based, Clone20-Shn3RL, cherry-picked (AID 624133); format: functional
# Cytochrome P450 2C19 = Cytochrome P450 2C19 (Homo sapiens, UniProt P33261); assay: Cytochrome panel assay with activity outcomes. Panel member name: p450-cyp2c19 Compounds with AC50 equal or less than 10 uM are considered active; format: functional
# Chain of Cytochrome P450 2C19 (P33261 whole entry): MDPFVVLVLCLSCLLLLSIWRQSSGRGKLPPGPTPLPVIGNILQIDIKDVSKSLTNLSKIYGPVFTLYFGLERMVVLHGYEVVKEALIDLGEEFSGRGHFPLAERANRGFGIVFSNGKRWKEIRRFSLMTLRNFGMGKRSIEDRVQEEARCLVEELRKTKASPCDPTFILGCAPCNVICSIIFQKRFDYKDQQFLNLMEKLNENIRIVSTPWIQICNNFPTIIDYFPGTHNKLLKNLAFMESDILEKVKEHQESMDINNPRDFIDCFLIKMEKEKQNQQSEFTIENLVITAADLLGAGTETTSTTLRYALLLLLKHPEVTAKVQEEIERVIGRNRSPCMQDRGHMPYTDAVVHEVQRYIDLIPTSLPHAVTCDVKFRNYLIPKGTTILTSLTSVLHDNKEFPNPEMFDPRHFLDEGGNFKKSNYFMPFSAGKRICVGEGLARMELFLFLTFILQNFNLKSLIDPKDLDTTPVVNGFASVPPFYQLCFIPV
# Cytochrome P450 3A4 = Cytochrome P450 3A4 (Homo sapiens, UniProt P08684);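 further: CYP3A4 tested as one member of a cytochrome P450 panel screen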
# Chain of Cytochrome P450 3A4 (P08684 whole entry): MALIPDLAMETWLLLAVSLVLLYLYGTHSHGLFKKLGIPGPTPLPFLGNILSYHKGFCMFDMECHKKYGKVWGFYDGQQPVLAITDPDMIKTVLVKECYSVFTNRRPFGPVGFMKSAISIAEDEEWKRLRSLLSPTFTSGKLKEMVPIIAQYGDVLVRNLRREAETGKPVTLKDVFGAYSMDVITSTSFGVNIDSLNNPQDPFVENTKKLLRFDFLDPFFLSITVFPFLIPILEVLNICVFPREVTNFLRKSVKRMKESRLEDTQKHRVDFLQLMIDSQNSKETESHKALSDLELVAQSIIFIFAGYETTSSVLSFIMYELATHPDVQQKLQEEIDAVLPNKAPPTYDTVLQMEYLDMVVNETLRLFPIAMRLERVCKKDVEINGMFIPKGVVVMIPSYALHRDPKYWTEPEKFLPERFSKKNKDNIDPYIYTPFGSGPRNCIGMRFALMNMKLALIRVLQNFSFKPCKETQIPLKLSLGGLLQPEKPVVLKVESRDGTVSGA
# Protein skinhead-1 = molecular target: T3, Protein skinhead-1 (Caenorhabditis elegans, UniProt P34707); format: functional
# T3 sequence (P34707 whole entry): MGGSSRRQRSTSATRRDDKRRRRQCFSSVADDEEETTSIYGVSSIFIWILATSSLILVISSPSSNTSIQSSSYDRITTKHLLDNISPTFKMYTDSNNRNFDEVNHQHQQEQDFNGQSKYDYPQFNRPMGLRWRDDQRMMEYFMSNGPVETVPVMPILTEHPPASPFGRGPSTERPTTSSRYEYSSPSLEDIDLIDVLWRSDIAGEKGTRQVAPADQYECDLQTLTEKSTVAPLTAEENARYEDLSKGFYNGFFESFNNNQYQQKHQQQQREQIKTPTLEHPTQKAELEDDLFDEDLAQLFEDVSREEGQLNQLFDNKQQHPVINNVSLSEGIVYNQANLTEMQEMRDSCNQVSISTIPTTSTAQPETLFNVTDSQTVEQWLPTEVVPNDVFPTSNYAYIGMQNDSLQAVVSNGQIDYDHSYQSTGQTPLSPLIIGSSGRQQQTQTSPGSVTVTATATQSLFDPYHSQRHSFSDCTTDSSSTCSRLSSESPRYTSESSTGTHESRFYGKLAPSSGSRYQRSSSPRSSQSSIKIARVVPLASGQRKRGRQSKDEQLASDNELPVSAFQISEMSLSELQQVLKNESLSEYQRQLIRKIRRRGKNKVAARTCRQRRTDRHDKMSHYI
smiles,measurement,setting,value
COc1ccc2c3c([nH]c2c1)[C@@H](CO)N(Cc1cc(F)ccc1F)CC31CN(C(=O)CN(C)C)C1,AC50,[1],3.87 µM (active)
O=c1c(O)c(-c2ccccc2)oc2cc(O)ccc12,IC50,H9c2,> 79 µM (inactive)
Cc1cccc(NC(=O)CSc2cc(C(=O)c3nccn3C)c3ccccc3n2)c1,EC50,[2],453 µM (active)
O=C(Nc1cccc(S(=O)(=O)N2CCOCC2)c1)c1c2c(nc3ccccc13)CCC2,IC50,[3],5.02 µM (active)
Cc1nnc(SCC(=O)N(C)Cc2ccccc2)nc1O,IC50,[4],> 47.1 µM (inactive)
same,EC50,[5],> 53 µM (inactive)
C[C@@H](O)C#Cc1ccc([C@H]2[C@H]3CN(S(=O)(=O)c4ccccc4)CCCCN3[C@H]2CO)cc1,AC50,[1],7.37 µM (active)
Cn1c(=O)n(C)c2cc(NC(=O)CCl)ccc21,EC50,BJ [6],18.8 µM (active)
same,EC50,BJ [7],20.7 µM (inconclusive)
same,EC50,BJ [8],> 75 µM (inconclusive)
same,EC50,[9],28 µM (active)
Cc1ccc(C(=O)N/C(=C\c2cn(C)c3ccccc23)C(=O)NCCCN2CCOCC2)cc1,IC50,[4],> 47.1 µM (inactive)
same,EC50,[5],> 53 µM (inactive)
CCN1C(=O)/C(=C\C=C\c2ccccc2[N+](=O)[O-])SC1=S,IC50,[4],> 47.1 µM (inactive)
same,EC50,[5],> 53 µM (inactive)
C[C@H]1CN([C@@H](C)CO)S(=O)(=O)c2ccc(C#Cc3ccccc3)cc2O[C@@H]1CN(C)S(=O)(=O)c1cn(C)cn1,AC50,[1],3.95 µM (active)
Cc1cc(NC(=O)c2cc([N+](=O)[O-])cc([N+](=O)[O-])c2)no1,EC50,[10],0.287 µM (active)
same,EC50,[11],> 60 µM (not active)
same,IC50,cells,13.3 µM (active)
O=C(Cc1cccs1)Nc1nc2c(ccc3ccccc32)s1,IC50,[4],> 47.1 µM (inactive)
same,EC50,[5],> 53 µM (inactive)
COc1cc(C(=O)Nc2ccc(NC(=O)c3cccc(Cl)c3)nc2)cc(OC)c1OC,IC50,H9c2,8.67 µM (active)
COc1ccc(-c2ccc3c(c2)S(=O)(=O)c2cccc(C(=O)N4CCN(c5ccccn5)CC4)c2C3=O)cc1OC,IC50,H9c2,15 µM (active)
FC(F)Sc1ccc(NC2=NN=C(c3ccc4c(c3)OCCO4)CS2)cc1,EC50,[10],1.99 µM (active)
same,EC50,[11],6.72 µM (active)
same,AC50,INS1,4.4 µM (active)
same,AC50,Cytochrome P450 2D6,14.1 µM (inconclusive)
same,AC50,Cytochrome P450 1A2,35.5 µM (inconclusive)
C[C@H]1CN([C@@H](C)CO)C(=O)Cc2cc(NS(C)(=O)=O)ccc2O[C@@H]1CN(C)Cc1ccc(Cl)c(Cl)c1,IC50,[4],> 47.1 µM (inactive)
same,EC50,[5],40.7 µM (active)
COc1ccc(C(=O)CSc2nnc(-c3ccco3)c(-c3ccco3)n2)cc1,IC50,[3],6.58 µM (active)
CC(C)CCN(C(=O)CNC(=O)c1ccco1)C(C(=O)NC1CCCCC1)c1ccco1 (stereo unspecified),IC50,H9c2,17.4 µM (active)
CCC(C)N1C(=O)S/C(=C/c2ccc3c(c2)n(C)c(=O)n3C)C1=O (stereo unspecified),IC50,H9c2,> 79 µM (inactive)
Cc1c(Cl)cccc1NC(=O)CNC(=O)Cc1nnc(O)c2ccccc12,IC50,H9c2,> 79 µM (inactive)
CN(C)c1ccc(/C=N/NC(=O)c2cccc(C(=O)N/N=C/c3ccc(N(C)C)cc3)n2)cc1,IC50,[3],1.15 µM (active)
COCCN(C(=O)COC(=O)C1CCC(C(C)(C)C)CC1)c1c(N)n(Cc2ccccc2)c(=O)[nH]c1=O (stereo unspecified),AC50,INS1,2.34 µM (active)
same,AC50,[12],5.15 µM (active)
same,AC50,[13],43.1 µM (active)
same,AC50,[14],4.83 µM (active)
CCC(=O)c1ccc(OCC(O)Cn2c(C)nc3ccccc32)cc1 (stereo unspecified),AC50,[12],2.28 µM (active)
same,AC50,[13],49.9 µM (active)
same,AC50,[14],14.1 µM (active)
O=c1c2cnn(-c3ccccc3)c2nnn1/N=C/c1cccnc1,AC50,Cytochrome P450 2C19,inconclusive
same,AC50,Cytochrome P450 2D6,11.2 µM (inconclusive)
same,AC50,Cytochrome P450 1A2,3.16 µM (inconclusive)
COCCOC(=O)N/C=C\c1nc(O)c2ccccc2n1,IC50,H9c2,> 79 µM (inactive)
CCCCn1c(N)c(N(CCC(C)C)C(=O)Cc2ccc(S(=O)(=O)N3CCOCC3)s2)c(=O)[nH]c1=O,IC50,[4],> 47.1 µM (inactive)
same,EC50,[5],> 53 µM (inactive)
CCOc1ccc(S(=O)(=O)N2CCN(C(=O)c3ccncc3)CC2)cc1,IC50,[4],> 47.1 µM (inactive)
same,EC50,[5],> 53 µM (inactive)
CN(C)c1ncc(S(=O)(=O)c2ccc(Cl)cc2)c(-c2ccc(Cl)cc2Cl)n1,IC50,[4],> 47.1 µM (inactive)
same,EC50,[5],> 53 µM (inactive)
CN(C)c1ccc(-c2nc(NCCN3CCOCC3)c3ccccc3n2)cc1,AC50,Cytochrome P450 2C19; read-out: AC50,39.8 µM (inconclusive)
same,AC50,Cytochrome P450 2D6,25.1 µM (inconclusive)
same,AC50,Cytochrome P450 3A4,12.6 µM (inconclusive)
CCOC(=O)C1=C(C)N=C(C)/C(=C(/O)OCC)C1C(=O)OCC(=O)NC1CCCCC1 (stereo unspecified),IC50,H9c2,7.69 µM (active)
C=CCC[C@H](Cc1ccc(F)cc1)C(=O)OC[C@@H](Cc1c[nH]c2ccccc12)NC(=O)[C@@H](CC=C)CC(=O)NCCO,IC50,H9c2,> 79 µM (inactive)
O=C(O)C[C@H](O)C[C@H](O)/C=C/c1c(C2CC2)nc2ccccc2c1-c1ccc(F)cc1 [PITAVASTATIN CALCIUM],EC50,BJ [6],0.299 µM (active)
same,EC50,BJ [7],4.21 µM (active)
same,EC50,BJ [8],0.559 µM (active)
same,EC50,[9],0.353 µM (active)
O=C(Nc1nccs1)c1ccc2ccccc2c1,IC50,cells,6.75 µM (active)
same,IC50,Protein skinhead-1,20.8 µM (active)
CC[C@@H]1CCCCc2ccccc2[C@H](C(=O)C[C@H](O)CC(C)=O)OC1=O,IC50,[4],> 47.1 µM (inactive)
same,EC50,[5],> 53 µM (inactive)
CC(C)c1ccccc1-n1c(SCC(=O)N2CCc3ccccc3C2)nc2ccccc2c1=O,AC50,INS1,2.44 µM (active)
same,AC50,[12],2.99 µM (active)
same,AC50,[13],55.4 µM (active)
same,AC50,[14],3.83 µM (active)
Cc1ccc(C(=O)OCC(=O)c2cc(C)n(CC3CCCO3)c2C)cc1 (stereo unspecified),IC50,[4],> 47.1 µM (inactive)
same,EC50,[5],> 53 µM (inactive)
Cc1sc2nc(SCC(=O)N(C)C)nc(O)c2c1C,IC50,H9c2,22.3 µM (active)
Oc1ccc(N=Nc2ccc3c(c2)OCO3)c2ccccc12,EC50,BJ [6],2.85 µM (active)
same,EC50,BJ [7],10.9 µM (active)
same,EC50,BJ [8],6.46 µM (inconclusive)
same,EC50,[9],19.4 µM (inconclusive)

# Source: ChEMBL document CHEMBL1201862, “PubChem BioAssay data set” (2004)
